Laboratory results as given in ChEMBL document CHEMBL1201862, “PubChem BioAssay data set” (2004).
The source made the active and inactive calls.

Legend:
[1] = biological target: T1, Polyadenylate-binding protein 1 (Homo sapiens, UniProt P11940); experiment: PABP1 MLLE–PAM2 binding inhibitor potency, dose response, biochemical, fluorescence polarization, FITC-PAM2 peptide (AID 602259); format: functional; settings: read-out: IC50_Mean
[2] = biological target: T1, Polyadenylate-binding protein 1; experiment: PABP1 MLLE–PAM2 interaction inhibitors, dose response, miRNA deadenylation inhibitor project, biochemical, fluorescence polarization, Cy5-PAM2 peptide, secondary (AID 602260); format: functional; settings: read-out: IC50_Mean
[3] = biological target: T2, Calpain-2 catalytic subunit (Sus scrofa, UniProt P43367); experiment: pig calpain II inhibitor potency, dose response, biochemical, fluorogenic peptide substrate (AID 1420); format: functional
T2 sequence (P43367 whole entry): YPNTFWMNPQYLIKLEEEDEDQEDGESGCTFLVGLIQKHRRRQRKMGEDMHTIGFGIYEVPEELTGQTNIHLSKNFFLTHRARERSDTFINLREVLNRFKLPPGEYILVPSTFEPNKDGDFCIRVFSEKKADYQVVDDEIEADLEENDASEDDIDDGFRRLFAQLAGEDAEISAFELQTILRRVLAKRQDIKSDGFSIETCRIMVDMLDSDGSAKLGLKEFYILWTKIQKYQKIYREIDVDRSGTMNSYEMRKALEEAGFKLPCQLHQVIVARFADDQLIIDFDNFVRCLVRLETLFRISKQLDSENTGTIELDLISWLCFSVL

cells [4] = format: functional, cell-based
cells [5] = format: functional, cell-based; remark: listed apart in the source
[6] = biological target: T3, High affinity choline transporter 1 (Homo sapiens, UniProt Q9GZV3); experiment: CHT inhibitors, dose response, cell-based, 5-point CRC, membrane potential dye (AID 504840); format: functional
T3 sequence (Q9GZV3 whole entry): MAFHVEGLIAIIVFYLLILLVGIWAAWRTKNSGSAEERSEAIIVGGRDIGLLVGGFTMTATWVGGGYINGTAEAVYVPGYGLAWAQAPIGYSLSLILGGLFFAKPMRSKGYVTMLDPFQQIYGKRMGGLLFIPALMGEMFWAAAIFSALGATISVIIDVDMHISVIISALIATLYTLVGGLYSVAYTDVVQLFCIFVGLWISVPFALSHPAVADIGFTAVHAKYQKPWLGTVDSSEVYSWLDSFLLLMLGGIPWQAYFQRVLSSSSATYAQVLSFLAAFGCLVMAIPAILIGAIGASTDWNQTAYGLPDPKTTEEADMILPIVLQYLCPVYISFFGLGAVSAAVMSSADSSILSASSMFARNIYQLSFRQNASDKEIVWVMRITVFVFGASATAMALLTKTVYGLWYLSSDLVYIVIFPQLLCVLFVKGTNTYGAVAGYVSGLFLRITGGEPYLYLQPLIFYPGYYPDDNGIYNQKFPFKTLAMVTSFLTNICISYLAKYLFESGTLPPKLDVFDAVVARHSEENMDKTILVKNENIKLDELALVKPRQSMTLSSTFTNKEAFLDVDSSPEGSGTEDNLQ

cells [7] = format: functional
HEK293 = experiment: inhibitors of LMP1-driven NF-kB reporter, dose response, cell-based, HEK293, luciferase, cherry-pick (AID 588343); format: functional; settings: Homo sapiens
[8] = microbe, parasite or virus in culture; format: functional; settings: Mycobacterium tuberculosis
Genome polyprotein = Genome polyprotein (dengue virus type 2, UniProt P29990); experiment: Dengue-2 NS5 methyltransferase inhibitors, primary screen, biochemical, confirmation dose response (AID 588689); format: functional
[9] = biological target: T4, Ubiquitin-conjugating enzyme E2 N (Homo sapiens, UniProt P61088); format: functional;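 also: Dose-response confirmation in a TR-FRET assay detecting UBC13-driven polyubiquitin chain formation, inhibition measured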
T4 sequence (P61088 whole entry): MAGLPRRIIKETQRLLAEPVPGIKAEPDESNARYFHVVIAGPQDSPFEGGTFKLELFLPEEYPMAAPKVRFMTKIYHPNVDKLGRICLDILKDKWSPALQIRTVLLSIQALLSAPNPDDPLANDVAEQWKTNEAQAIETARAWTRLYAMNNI

[10] = biological target: T5, Short transient receptor potential channel 4 (Mus musculus, UniProt Q9QUQ5); experiment: mouse TRPC4 channel activators, dose response, cell-based, HEK293 TRPC4/mu-opioid, Fluo-4 calcium (AID 434937); format: functional
T5 sequence (Q9QUQ5 whole entry): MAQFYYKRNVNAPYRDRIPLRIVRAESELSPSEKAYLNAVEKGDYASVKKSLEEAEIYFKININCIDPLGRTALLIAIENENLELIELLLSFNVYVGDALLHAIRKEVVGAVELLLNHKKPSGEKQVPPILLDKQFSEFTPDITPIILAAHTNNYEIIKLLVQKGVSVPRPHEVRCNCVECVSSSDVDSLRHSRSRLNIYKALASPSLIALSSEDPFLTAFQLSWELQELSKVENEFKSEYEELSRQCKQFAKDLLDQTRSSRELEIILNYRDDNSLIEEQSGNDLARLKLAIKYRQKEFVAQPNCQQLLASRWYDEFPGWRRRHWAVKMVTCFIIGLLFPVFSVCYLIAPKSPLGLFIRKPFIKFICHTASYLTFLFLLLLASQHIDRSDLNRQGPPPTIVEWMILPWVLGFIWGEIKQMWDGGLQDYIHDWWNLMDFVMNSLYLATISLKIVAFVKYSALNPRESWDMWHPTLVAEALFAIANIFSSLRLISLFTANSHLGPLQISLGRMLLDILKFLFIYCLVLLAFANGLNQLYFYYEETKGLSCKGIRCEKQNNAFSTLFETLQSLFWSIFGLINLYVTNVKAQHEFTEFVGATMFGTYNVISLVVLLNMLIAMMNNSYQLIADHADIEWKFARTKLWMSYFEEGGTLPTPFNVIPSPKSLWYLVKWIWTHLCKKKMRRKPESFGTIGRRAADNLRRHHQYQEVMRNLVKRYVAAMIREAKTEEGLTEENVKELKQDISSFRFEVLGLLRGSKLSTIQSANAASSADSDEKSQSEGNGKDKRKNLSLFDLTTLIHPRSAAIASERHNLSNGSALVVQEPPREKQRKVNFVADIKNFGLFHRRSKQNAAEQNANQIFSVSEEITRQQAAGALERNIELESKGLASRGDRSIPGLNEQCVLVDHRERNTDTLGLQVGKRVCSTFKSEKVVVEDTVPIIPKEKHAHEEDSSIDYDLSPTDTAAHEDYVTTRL

[11] = biological target: T6, Rac GTPase-activating protein 1 (Homo sapiens, UniProt Q9H0H5); experiment: MgcRacGAP GTPase-activating activity inhibitors, confirmation, biochemical, ADP Hunter fluorescence, primary and confirmatory (AID 624330); format: functional
T6 sequence (Q9H0H5 whole entry): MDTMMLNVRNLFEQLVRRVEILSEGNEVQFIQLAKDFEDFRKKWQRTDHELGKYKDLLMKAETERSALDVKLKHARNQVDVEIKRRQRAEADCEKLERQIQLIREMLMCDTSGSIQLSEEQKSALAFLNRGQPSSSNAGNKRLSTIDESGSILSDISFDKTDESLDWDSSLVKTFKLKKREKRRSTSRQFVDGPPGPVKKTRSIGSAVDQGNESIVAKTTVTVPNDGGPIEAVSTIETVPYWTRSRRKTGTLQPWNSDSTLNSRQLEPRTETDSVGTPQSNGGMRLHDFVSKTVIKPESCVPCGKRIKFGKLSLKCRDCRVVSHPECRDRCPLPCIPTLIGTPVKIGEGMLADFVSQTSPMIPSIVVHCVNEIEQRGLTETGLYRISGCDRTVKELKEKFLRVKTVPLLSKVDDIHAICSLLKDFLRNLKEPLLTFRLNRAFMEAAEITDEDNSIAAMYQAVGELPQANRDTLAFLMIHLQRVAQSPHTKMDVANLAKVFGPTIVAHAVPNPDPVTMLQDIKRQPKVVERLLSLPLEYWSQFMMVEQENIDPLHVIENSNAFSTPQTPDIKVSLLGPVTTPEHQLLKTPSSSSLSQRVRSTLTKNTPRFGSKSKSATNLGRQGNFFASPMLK

[12] = biological target: T7, Corticotropin-releasing factor receptor 2/Corticotropin-releasing factor-binding protein (Homo sapiens, UniProt P24387+Q13324); experiment: activators of CRF receptor 2 with binding protein – uHTS hits, confirmation (AID 602473); format: functional; settings: read-out: EC50_Mean
T7 sequence (Q13324 whole entry): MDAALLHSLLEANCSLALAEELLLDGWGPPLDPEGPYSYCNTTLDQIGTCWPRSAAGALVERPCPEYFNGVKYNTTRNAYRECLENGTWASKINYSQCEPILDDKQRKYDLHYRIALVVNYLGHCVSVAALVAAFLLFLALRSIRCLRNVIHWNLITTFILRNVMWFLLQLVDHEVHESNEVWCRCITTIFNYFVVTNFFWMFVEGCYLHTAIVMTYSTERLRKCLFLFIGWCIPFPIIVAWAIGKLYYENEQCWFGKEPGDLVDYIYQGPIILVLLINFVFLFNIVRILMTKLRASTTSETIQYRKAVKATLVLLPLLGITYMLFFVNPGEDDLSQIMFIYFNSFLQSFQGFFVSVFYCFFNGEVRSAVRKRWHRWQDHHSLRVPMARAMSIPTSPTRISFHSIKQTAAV
T7 sequence (P24387 whole entry): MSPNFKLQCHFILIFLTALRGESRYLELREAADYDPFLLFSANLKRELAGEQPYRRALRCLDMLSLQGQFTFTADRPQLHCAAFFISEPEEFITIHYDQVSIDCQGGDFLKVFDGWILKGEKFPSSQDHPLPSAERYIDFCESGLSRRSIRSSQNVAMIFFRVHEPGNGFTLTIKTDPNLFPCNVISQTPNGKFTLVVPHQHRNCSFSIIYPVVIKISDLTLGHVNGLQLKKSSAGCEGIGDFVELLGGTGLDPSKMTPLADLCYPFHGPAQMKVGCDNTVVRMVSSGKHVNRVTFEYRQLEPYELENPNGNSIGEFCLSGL

[13] = biological target: T7, Corticotropin-releasing factor receptor 2/Corticotropin-releasing factor-binding protein; experiment: Dose Response confirmation of uHTS hits for small molecule antagonists of the CRF-binding protein and CRF-R2 receptor complex.; format: functional; settings: read-out: IC50_Mean
P388/ADR = experiment: cells; format: functional; settings: Mus musculus, P388/ADR
[14] = tested on: Streptococcus sp. 'group A'; experiment: growth inhibition of control SK(-) GAS strain, dose response, counter-screen for streptokinase expression inhibitor project, luminescence, kanamycin, BacTiterGlo, confirmation (AID 1900); format: functional, organism-based
Streptococcus = experiment: Group A Streptococcus viability loss, dose response, counter-screen for streptokinase expression inhibitor project, luminescence, BacTiterGlo (AID 1915); format: functional, organism-based;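 also: potency for reduction of bacterial viability or growth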

Sequence of Genome polyprotein (P29990 2492-3391 limits assumed): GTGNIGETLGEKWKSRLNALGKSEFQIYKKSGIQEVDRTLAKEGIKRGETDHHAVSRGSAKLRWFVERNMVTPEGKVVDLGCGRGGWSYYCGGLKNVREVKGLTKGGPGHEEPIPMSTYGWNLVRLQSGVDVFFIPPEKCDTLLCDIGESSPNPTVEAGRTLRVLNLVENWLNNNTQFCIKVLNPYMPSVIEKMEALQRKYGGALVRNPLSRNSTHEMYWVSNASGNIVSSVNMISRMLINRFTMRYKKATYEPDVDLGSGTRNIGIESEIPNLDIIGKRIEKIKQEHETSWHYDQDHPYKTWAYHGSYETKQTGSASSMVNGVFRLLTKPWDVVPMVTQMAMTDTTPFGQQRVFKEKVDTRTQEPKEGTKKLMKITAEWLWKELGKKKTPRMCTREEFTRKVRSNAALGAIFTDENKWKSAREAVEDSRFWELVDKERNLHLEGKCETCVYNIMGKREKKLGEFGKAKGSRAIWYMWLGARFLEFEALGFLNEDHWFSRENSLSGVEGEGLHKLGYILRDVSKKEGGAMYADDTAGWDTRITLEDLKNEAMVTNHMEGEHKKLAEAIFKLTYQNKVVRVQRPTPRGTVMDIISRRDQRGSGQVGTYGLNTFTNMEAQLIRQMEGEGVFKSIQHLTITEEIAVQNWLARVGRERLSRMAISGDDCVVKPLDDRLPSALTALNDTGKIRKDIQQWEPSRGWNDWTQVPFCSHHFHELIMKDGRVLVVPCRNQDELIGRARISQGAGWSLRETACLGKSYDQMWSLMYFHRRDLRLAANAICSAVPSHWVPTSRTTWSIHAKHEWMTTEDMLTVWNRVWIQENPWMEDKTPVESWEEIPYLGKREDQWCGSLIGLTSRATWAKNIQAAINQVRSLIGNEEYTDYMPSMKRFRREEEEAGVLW
T1 sequence (P11940 whole entry): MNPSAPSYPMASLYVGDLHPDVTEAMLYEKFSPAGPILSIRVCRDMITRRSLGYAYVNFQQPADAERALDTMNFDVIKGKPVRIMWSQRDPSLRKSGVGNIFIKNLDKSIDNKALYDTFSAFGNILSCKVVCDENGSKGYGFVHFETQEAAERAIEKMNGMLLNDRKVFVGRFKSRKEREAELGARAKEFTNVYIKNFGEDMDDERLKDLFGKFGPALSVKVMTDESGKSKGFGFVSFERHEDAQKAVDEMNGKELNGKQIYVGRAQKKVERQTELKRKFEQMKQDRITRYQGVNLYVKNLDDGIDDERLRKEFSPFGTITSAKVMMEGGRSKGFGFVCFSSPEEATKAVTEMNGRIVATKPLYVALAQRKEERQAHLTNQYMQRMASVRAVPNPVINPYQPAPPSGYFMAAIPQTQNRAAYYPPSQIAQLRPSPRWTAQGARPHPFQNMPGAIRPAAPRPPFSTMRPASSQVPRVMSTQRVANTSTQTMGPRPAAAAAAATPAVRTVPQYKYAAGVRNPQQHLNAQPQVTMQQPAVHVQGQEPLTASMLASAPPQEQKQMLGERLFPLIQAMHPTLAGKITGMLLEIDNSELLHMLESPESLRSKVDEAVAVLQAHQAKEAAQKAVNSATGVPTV

## CN(CCC(=O)c1ccccc1)CCC(=O)c1ccccc1
[1]
  IC50: > 66 µM (inactive)
[2]
  IC50: > 66 µM (inactive)

## Cc1ccc(N2C(=O)CC(c3c[nH]c4ccccc34)C2=O)cc1 (stereo unspecified)
[3]
  IC50: 12.1 µM (not active)

## O=C(Cn1ncc2c3ccccc3n(Cc3ccccc3F)c2c1=O)NCCN1CCOCC1
Cells [4]
  EC50: > 350 µM (not active)
Cells [5]
  EC50: > 350 µM (not active)
[6]
  IC50: 12 µM (active)

## Cc1onc(-c2ccccc2)c1C(=O)Nc1nnc(COc2ccc(Cl)cc2)s1
Cells [7]
  IC50: 8.45 µM (active)

## COc1cc(C(=S)N2CCOCC2)cc(OC)c1OC(=O)c1ccc(F)cc1
HEK293
  AC50: > 350 µM (inactive)

## Cn1nc(C(=O)NNc2c(F)c(F)cc(F)c2F)c2ccccc2c1=O
[3]
  IC50: 5.53 µM (not active)

## O=C(C1CCCN(c2ncnc3c2nc2n3CCCCC2)C1)N1CCN(c2ccc(Cl)cc2)CC1 (stereo unspecified)
[6]
  IC50: 4.57 µM (active)
[8]
  CC50: > 40 µM (active)

## CCOc1ccc(N2C(=O)C(Cl)=C(N3CCOCC3)C2=O)cc1
Genome polyprotein
  IC50: 29.4 µM (active)

## CC1Cc2ccccc2N1C(=S)NC(=O)c1ccco1 (stereo unspecified)
[3]
  IC50: 0.535 µM (not active)

## CC1CCCCC1NC(=O)c1ccc(S(=O)(=O)N2CCCC2)cc1 (stereo unspecified)
[6]
  IC50: 13.2 µM (active)

## O=C1Nc2cc(C(=O)NCCCN3CCOCC3)ccc2S/C1=C/c1cccc(Cl)c1
[9]
  IC50: > 20 µM (inactive)
[8]
  CC50: > 40 µM (active)
Cells [7]
  IC50: 27.8 µM (active)

## Cc1ccc(SC[C@H](c2ccccc2)N2CCN(CCc3ccccc3)CCC2=O)cc1
[3]
  IC50: 7.19 µM (not active)

## COc1ccc(C(=O)C2CCCN(C3Cc4ccccc4C3)C2)cc1OC (stereo unspecified)
[10]
  EC50: 1.68 µM (active)

## COc1ccccc1C(=O)Nc1ccc(C(=O)c2ccccc2)cc1
[3]
  IC50: 35.2 µM (not active)

## COc1ccc(F)cc1CN1CCN(C(=O)CCC(=O)Nc2nnc(C(C)C)s2)CC1
[10]
  EC50: 0.841 µM (active)

## CCN1CCN(c2ccc(S(=O)(=O)N3CCOCC3)cc2NC(=O)/C=C/c2ccc(OC)cc2OC)CC1
[10]
  EC50: 2.99 µM (active)

## CCCCNS(=O)(=O)c1ccc2[nH]c(SCC(=O)Nc3ccccc3Cl)nc2c1
[3]
  IC50: 18.5 µM (not active)

## CCCN(CCC)CCN=C(S)Nc1ccc2nc3n(c(=O)c2c1)CCCCC3
[10]
  EC50: 0.299 µM (active)

## C=CCn1c(CCNC(=O)c2ccco2)nc2ccccc21
[10]
  EC50: 1.68 µM (active)

## COc1cc(/C=C2\C(=O)N(c3cccc(C(=O)O)c3)N=C2C)ccc1OCc1ccccc1
Genome polyprotein
  IC50: 7.99 µM (active)
[11]
  IC50: 43.9 µM (active)

## Oc1nncc(N/N=C/C=C/c2ccccc2)n1
[12]
  EC50: > 53 µM (inactive)
HEK293
  AC50: 7.38 µM (active)
[13]
  IC50: > 47.1 µM (inactive)

## C=C1CC2CC[C@@]34C[C@H]5O[C@@H]6C(O[C@H]7CC[C@H](CC(=O)OC8[C@H](C)C9OC%10C[C@]%11(C[C@@H]%12O[C@]%13(C[C@H](C)[C@@H]%14O[C@H]([C@H](O)C[C@H](O)CO)C[C@@H]%14O%13)C[C@H](C)[C@@H]%12O%11)OC%10CC9O[C@H]8C[C@H]8O[C@H](CC[C@@H]1O2)C[C@@H](C)C8=C)O[C@H]7[C@@H]6O3)[C@@H]5O4 (stereo partly specified)
P388/ADR
  GI50: 0.000255 µM (active)

## COc1ccccc1NS(=O)(=O)c1ccc(N/N=C/c2ccccc2OCC(=O)O)c([N+](=O)[O-])c1
Genome polyprotein
  IC50: 56.5 µM (active)

## CC(C)C(=O)Nc1ccc(C(=O)N/N=C/c2cc(Br)cc(Br)c2O)cc1
HEK293
  AC50: 16.7 µM (active)
[14]
  EC50: 1.65 µM (active)
Streptococcus
  EC50: 2.04 µM (active)

## COc1ccc(OCC(=O)N/N=C2\CCc3ccccc32)cc1
Cells [7]
  IC50: 42.9 µM (active)
